Consider five molecules from article PMC3314994, “Inhibitors of human histone deacetylase with potent activity against the African trypanosome Trypanosoma brucei” (Bioorganic & Medicinal Chemistry Letters, 2012).

Assay [1] relates to Trypanosoma brucei (BSF). The experiment in a line: Growth inhibition of cultured bloodstream form T. brucei. Type of assay: cell-based, Trypanosoma brucei (strain 427). Conditions: for IC50 / IC90: Trypanosoma brucei, cultured bloodstream form, strain 427, triplicate; for IC50: read-out: Trypanosoma brucei (BSF) IC50 ± SD; for IC90: read-out: Trypanosoma brucei (BSF) IC90 ± SD. The method, then: Treatment of parasites with micromolar levels of these inhibitors could result in cell death within 4 h (Fig. 1).
[30] Growth inhibitory properties against cultured bloodstream form T. brucei were determined as described previously.[29] Experiments were performed in triplicate and data are presented as ±SD.

Assay [2] has as its system HDAC (FDL_HELA). Nature of the assay: Histone deacetylase activity in HeLa cell lysates (fluorescent assay kit). Type of assay: biochemical, Human. Conditions: lysed HeLa cells; read-out: HDAC (FDL_HELA) IC50 ± SD. How it is done:
(§1) The compounds from the different structural subclasses were all active as HDAC inhibitors, measured in an assay of enzymes in HeLa cell lysates.[23,24] HeLa cells express multiple HDACs, including HDAC 1, 2, 3, 4, and 8.[25–27] […] To further characterise the compounds with respect to HDAC selectivity, we determined their inhibitory properties against recombinant expressed human HDACs (rhHDAC 1–4, 6–9).[28]
[24] Histone deacetylase activity was determined in lysed Human cervix epithelial cancer HeLa cells. To determine the IC50 of test compound a commercially available fluorescent assay kit was used employing an acetylated enzyme substrate.[23]

In assay [3] the target is rhHDAC 1 (Homo sapiens, UniProt Q13547). The experiment in a line: Inhibition of recombinant human HDAC isoforms. In kind it is biochemical. The note with it: mean ± SD, triplicate per plate, min two plates; read-out: ED50 rhHDAC 1.
Description: as §1

Assay [4] concerns the target rhHDAC 2 (Homo sapiens, UniProt Q92769). The experiment in a line: Inhibition of recombinant human HDAC isoforms. Conditions: mean ± SD, triplicate per plate, min two plates; read-out: ED50 rhHDAC 2. In kind it is biochemical.
Description: as §1

Assay [5] has as its target rhHDAC 3 (Homo sapiens, UniProt O15379). Nature of the assay: Inhibition of recombinant human HDAC isoforms. The note with it: mean ± SD, triplicate per plate, min two plates; read-out: ED50 rhHDAC 3. Type of assay: biochemical.
Description: as §1

Assay [6] deals with rhHDAC 4 (Homo sapiens, UniProt P56524). Nature of the assay: Inhibition of recombinant human HDAC isoforms. In kind it is biochemical. The note with it: mean ± SD, triplicate per plate, min two plates; read-out: ED50 rhHDAC 4.
Description: as §1

For assay [7], the target named is T1, rhHDAC 6 (Homo sapiens, UniProt Q9UBN7).
T1 sequence (Q9UBN7 1-1215): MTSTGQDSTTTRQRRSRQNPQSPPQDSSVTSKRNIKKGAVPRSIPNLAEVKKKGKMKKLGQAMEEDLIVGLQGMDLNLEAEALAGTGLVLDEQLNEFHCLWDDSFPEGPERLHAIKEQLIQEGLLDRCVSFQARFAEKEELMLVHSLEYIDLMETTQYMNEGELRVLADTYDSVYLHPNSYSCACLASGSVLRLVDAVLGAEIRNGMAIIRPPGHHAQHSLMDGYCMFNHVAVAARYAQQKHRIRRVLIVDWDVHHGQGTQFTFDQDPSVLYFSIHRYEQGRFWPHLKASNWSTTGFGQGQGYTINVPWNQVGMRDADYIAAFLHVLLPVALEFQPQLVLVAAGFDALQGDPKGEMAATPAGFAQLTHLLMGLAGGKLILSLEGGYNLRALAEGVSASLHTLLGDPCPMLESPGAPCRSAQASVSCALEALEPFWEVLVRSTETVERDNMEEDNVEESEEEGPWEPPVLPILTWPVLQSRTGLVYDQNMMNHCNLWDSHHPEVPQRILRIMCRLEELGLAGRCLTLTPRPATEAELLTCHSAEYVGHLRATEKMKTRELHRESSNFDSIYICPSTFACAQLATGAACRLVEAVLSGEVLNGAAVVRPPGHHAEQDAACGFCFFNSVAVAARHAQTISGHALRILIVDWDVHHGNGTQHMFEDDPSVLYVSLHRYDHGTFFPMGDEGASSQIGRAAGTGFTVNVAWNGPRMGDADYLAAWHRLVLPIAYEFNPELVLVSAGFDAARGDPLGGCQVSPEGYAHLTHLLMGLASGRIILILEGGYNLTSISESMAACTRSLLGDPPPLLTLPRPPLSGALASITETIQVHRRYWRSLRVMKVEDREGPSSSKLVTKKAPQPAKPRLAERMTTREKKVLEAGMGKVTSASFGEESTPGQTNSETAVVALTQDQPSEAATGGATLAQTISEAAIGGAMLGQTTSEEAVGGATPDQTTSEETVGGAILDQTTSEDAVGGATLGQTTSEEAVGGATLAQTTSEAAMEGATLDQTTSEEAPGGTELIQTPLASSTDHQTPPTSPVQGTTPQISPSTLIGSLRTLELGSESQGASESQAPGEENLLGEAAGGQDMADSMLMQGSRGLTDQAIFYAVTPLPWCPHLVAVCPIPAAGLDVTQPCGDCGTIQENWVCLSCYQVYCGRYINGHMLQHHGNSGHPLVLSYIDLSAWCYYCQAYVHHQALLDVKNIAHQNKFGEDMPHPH
The experiment in a line: Inhibition of recombinant human HDAC isoforms. In kind it is biochemical. The note with it: mean ± SD, triplicate per plate, min two plates; read-out: ED50 rhHDAC 6.
Description: as §1

In assay [8] the target is T2, rhHDAC 8 (Homo sapiens, UniProt Q9BY41).
T2 sequence (Q9BY41 1-377): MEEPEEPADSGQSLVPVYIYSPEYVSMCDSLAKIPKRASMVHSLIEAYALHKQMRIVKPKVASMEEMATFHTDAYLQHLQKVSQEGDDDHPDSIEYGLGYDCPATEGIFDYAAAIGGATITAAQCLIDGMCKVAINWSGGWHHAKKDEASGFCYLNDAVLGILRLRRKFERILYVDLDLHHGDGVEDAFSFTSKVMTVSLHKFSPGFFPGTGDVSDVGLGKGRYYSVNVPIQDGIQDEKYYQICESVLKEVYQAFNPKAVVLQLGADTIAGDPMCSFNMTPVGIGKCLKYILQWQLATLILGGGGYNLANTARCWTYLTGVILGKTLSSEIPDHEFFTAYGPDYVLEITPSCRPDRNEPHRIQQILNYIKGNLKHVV
Nature of the assay: Inhibition of recombinant human HDAC isoforms. In kind it is biochemical. The note with it: mean ± SD, triplicate per plate, min two plates; read-out: ED50 rhHDAC 8.
Description: as §1

For assay [9], the target named is rhHDAC 9 (Homo sapiens, UniProt Q9UKV0). Nature of the assay: Inhibition of recombinant human HDAC isoforms. Type of assay: biochemical. The note with it: mean ± SD, triplicate per plate, min two plates; read-out: ED50 rhHDAC 9.
Description: as §1

Assay [10] concerns the target T3, rhHDAC 7 (Homo sapiens, UniProt Q8WUI4).
T3 sequence (Q8WUI4 1-952): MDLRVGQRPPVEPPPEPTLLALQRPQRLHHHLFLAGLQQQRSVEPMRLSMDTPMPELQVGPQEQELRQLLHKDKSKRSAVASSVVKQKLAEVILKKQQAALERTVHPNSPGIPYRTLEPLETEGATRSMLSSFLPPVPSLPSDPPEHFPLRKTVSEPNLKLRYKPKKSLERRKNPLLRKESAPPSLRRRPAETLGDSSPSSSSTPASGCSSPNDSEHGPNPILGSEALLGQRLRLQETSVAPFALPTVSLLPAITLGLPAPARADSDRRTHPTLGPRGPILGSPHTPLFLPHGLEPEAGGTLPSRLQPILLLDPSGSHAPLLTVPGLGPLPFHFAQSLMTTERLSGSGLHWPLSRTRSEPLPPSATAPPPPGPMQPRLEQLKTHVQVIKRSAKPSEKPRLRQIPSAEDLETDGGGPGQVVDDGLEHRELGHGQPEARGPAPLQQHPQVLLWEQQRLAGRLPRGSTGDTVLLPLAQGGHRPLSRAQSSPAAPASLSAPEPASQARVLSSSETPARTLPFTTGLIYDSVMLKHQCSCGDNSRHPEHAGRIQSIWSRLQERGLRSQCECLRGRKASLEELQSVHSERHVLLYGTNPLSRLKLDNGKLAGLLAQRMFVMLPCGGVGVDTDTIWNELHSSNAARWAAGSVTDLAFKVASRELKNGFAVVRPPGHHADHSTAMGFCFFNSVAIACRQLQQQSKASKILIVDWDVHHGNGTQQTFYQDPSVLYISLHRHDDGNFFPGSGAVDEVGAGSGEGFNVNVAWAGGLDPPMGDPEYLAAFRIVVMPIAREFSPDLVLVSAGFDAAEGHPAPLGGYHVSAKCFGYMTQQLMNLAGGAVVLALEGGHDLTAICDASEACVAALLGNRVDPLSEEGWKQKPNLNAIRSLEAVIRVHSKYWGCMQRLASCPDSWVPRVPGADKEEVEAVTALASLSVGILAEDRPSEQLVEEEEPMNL
Nature of the assay: Inhibition of recombinant human HDAC isoforms. Conditions: mean ± SD, triplicate per plate, min two plates; read-out: ED50 rhHDAC 7. In kind it is biochemical.
Description: as §1

Assay [11] concerns Trypanosoma brucei (BSF). Further details: method as in PMID 14726511. The note with it: cited from earlier work.
Assay [12] deals with DAC1. Further details: method as in PMID 20624217. The note with it: cited from earlier work.
The test system of assay [13] is DAC3. Also on record: method as in PMID 20624217. Conditions: cited from earlier work.

As a reminder, the IC90 is the concentration at which the effect reaches the 90% level.

Each structure is given as a SMILES string.

Sequence of rhHDAC 4 (P56524 whole entry, canonical isoform): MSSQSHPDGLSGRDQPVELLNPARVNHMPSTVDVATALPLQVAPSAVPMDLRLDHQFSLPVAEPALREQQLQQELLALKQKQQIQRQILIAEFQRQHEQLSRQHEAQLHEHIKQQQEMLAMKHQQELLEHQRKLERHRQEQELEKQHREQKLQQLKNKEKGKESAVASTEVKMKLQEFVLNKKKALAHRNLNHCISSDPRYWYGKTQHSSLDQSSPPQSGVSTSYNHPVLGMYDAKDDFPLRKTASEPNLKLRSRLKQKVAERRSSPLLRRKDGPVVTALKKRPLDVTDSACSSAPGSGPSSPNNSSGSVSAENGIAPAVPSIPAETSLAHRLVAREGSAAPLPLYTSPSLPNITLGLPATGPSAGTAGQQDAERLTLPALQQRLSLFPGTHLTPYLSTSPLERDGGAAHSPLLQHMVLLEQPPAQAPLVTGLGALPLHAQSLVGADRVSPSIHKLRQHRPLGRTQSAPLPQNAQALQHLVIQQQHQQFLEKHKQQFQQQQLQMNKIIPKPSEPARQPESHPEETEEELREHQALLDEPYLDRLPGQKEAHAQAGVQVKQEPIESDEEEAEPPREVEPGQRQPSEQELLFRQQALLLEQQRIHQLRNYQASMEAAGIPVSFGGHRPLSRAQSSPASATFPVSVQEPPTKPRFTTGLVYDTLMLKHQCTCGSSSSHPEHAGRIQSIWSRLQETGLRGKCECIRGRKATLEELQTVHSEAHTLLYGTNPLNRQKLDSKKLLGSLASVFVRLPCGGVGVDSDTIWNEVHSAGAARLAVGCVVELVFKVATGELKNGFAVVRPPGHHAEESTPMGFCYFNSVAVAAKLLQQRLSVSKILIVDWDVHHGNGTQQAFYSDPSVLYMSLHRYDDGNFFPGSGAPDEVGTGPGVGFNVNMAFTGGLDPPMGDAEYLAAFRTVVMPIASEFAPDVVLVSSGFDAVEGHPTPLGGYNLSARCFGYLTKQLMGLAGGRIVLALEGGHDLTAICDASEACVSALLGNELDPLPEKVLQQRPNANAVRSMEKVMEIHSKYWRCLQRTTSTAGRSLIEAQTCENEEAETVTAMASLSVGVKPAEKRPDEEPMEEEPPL
Sequence of rhHDAC 2 (Q92769 whole entry, canonical isoform): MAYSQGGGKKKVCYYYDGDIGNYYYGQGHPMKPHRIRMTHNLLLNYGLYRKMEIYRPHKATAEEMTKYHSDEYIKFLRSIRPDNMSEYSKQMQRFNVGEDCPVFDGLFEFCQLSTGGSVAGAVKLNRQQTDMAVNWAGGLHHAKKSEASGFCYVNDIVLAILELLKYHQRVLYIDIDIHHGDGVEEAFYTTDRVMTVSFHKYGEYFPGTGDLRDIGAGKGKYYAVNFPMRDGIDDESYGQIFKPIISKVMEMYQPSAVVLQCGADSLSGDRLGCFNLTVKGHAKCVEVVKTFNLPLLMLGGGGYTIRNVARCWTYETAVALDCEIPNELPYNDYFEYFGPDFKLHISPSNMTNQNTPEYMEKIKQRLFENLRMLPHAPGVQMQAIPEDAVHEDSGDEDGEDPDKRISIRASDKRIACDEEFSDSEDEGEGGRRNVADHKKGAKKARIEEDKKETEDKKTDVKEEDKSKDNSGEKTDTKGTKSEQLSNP
Sequence of rhHDAC 1 (Q13547 whole entry, canonical isoform): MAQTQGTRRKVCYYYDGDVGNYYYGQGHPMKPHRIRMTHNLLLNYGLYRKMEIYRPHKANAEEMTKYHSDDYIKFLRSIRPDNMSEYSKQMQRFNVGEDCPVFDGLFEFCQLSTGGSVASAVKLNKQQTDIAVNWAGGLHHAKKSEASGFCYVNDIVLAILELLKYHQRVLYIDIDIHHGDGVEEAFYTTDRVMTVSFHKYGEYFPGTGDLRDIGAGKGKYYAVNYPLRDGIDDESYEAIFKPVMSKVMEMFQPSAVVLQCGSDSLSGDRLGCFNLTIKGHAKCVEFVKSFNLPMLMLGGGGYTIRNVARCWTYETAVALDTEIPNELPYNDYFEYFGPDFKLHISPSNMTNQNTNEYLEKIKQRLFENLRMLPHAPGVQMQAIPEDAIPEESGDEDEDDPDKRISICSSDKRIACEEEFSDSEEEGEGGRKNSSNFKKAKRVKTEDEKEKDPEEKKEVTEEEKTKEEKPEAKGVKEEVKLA
Sequence of rhHDAC 9 (Q9UKV0 whole entry, canonical isoform): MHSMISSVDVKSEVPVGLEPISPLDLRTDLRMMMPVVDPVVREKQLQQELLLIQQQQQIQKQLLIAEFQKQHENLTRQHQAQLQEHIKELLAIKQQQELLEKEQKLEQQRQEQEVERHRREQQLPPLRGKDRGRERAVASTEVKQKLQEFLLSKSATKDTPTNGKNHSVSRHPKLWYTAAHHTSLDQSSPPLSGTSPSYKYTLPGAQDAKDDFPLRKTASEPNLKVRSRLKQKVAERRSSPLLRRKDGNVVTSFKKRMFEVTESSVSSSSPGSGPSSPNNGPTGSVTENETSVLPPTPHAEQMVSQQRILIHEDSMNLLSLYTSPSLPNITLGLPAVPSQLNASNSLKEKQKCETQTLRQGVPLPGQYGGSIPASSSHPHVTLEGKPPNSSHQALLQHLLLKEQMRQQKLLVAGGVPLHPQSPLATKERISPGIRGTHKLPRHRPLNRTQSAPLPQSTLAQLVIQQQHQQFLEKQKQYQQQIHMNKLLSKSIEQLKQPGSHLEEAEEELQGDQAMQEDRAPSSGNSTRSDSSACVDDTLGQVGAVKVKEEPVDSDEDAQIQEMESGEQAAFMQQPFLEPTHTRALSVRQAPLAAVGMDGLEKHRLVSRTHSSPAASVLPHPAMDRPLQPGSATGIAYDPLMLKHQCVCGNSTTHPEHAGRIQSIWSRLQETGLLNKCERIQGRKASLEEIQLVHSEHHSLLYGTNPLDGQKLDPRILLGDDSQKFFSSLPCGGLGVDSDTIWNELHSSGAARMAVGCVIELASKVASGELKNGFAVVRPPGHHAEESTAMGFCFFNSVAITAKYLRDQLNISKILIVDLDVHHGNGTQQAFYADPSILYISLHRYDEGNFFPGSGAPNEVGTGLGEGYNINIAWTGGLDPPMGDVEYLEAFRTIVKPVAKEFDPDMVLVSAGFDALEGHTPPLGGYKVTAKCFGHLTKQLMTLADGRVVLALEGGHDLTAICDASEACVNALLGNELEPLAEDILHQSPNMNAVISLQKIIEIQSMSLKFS
Sequence of rhHDAC 3 (O15379 whole entry, canonical isoform): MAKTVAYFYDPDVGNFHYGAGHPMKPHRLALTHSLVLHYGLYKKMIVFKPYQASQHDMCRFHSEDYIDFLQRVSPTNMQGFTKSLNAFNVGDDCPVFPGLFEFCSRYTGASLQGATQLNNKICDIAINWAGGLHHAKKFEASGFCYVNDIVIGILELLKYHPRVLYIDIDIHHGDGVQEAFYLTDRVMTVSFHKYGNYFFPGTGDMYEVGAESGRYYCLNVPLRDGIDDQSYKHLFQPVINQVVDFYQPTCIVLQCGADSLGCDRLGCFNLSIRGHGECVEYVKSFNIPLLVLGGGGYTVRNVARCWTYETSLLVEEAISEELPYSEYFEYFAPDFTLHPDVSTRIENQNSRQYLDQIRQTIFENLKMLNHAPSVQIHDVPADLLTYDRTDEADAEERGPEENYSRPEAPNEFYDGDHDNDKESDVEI
Sequence of rhHDAC 3 (Q9Y618 395-489 partner limits assumed): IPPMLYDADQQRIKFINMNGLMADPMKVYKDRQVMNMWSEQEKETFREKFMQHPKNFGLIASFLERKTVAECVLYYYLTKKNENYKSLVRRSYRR

As to `COc1ccc(N2CCN(S(=O)(=O)c3cccc(/C=C/C(=O)NO)c3)CC2)cc1` [Compound 10], the IC50 in assay [1] was determined as 156 ± 3 nM; in [2], 212 ± 112 nM; in assay [3] it was 76 ± 6 nM; in assay [4], 36 ± 0.7 nM; in [5], 295 ± 290 nM; in [6], 870 nM. In addition, the IC50 in [7] is 107 ± 13 nM; in assay [8] it was 955 ± 166 nM; in assay [9] it was 1180 nM. For the same molecule, the IC90 in [1] was determined as 224 ± 3 nM.
For `O=C(/C=C/c1cccc(S(=O)(=O)Nc2cccc(F)c2)c1)NO` [Compound 15], the IC50 amounted to 343 ± 17 nM in [1]; 20 ± 4 nM in assay [2]; 44 ± 0.1 nM in assay [3]; 221 ± 141 nM in assay [4]; 89 ± 32 nM in assay [5]; 65 ± 20 nM in [6]. Also, the IC50 turned out to be 35 ± 16 nM in assay [7], 216 ± 133 nM in assay [10], 211 ± 42 nM in [8] and 109 ± 56 nM in assay [9]. In addition, the IC90 in assay [1] came to 710 ± 17 nM.
As for `COc1ccc(NS(=O)(=O)c2cccc(/C=C/C(=O)NO)c2)cc1` [Compound 18], the IC50 is 606 ± 81 nM in assay [1]; 13 ± 5 nM in [2]; 19 ± 1 nM in [3]; 105 ± 64 nM in assay [4]; 23 ± 2 nM in [5]; 33 ± 1 nM in assay [6]. The IC50 in assay [7] was determined as 36 ± 3 nM; in assay [10], 42 ± 22 nM; in [8], 167 ± 72 nM; in [9] it was 26 ± 3 nM. Besides, the IC90 in assay [1] came out at 956 ± 35 nM.
For the molecule `O=C(/C=C/c1nc2ccccc2o1)NO` [Compound 20], the IC50 is 1540 ± 60 nM in assay [1]; 48 ± 28 nM in assay [2]; 134 ± 6 nM in [3]; 554 ± 44 nM in [4]; 97 ± 0.6 nM in [5]; 373 ± 73 nM in assay [6]. Besides, the IC50 came to 68 ± 13 nM in [7], 286 ± 8 nM in [10], 573 ± 30 nM in assay [8] and 278 ± 65 nM in [9]. Further, the IC90 in assay [1] was 2180 ± 180 nM. Further, the “fold less active against T. brucei” value in [1] (relative to heterocyclic compounds 9 and 16) is 5- to 10 fold.
`CC(/C=C/C(=O)NO)=C\[C@@H](C)C(=O)c1ccc(N(C)C)cc1` [Trichostatin A]: the “growth of bloodstream form T. brucei” value in assay [11] is “suppresses growth”. In [12], the “inhibition of DAC1 activity” value is “inhibitor”. For the same molecule, the “inhibition of DAC3 activity” value in [13] is given as “inhibitor”.
